Experimental data reported in patent EP0732934B1, “LONG-ACTING INJECTION SUSPENSIONS OF AN LHRH ANALOGUE AND A PROCESS FOR THEIR PREPARATION” (Zentaris GmbH, priority 1993, dated 2005).
Counter-ions that a name gives are not always drawn.

Key:
[1] = in vivo, po; cited from earlier work
[2] = compared to its embonic acid salt, subcutaneous injection in mice; cited from earlier work
[3] = system: testosterone plasma levels; assay: Duration of action in the animal: testosterone suppression after subcutaneous application; format: in vivo; conditions: male rats
Method: Suspensions of the precipitates were applied subcutaneously to male rats in the dose 0.5 mg cetrorelix/kg body weight and determined after application as a measure of the effect of the peptide on testosterone plasma levels. The effect of the cetrorelix consists in reduction of the testosterone level. As a reference an injection suspension was tested as well, that prepared according to DE 4023134 A1 and which contained the peptide embonate in poly(lactic acid, glycolic acid) copolymers. The duration of action of a non-sustained release dosage form of cetrorelix was determined via examination of the aqueous solution of cetrorelix acetate.

Question: For CN(C)CCCN1c2ccccc2CCc2ccccc21 [imipramine HCl], which “difference to imipramine embonate” value [1] is on record?
Answer: no difference

Question: For CCc1nc(N)nc(N)c1-c1ccc(Cl)cc1 [pyrimethamine], which “pharmacokinetic behaviour, plasma level course and AUC” value [2] is on record?
Answer: no difference

Question: What does the source list for “Ac-DNal-DpCl-Phe-DPal-Ser-Tyr-DCit-Leu-Arg-Pro-D-Ala-NH2 [cetrorelix acetate]”?
Answer: effect of testosterone suppression achieved after the application ([3]; 0.5 mg cetrorelix/kg body weight subcutaneously): 6 h; duration of testosterone suppression under 1 ng/ml ([3]; 0.5 mg cetrorelix/kg subcutaneously, values for subgroups of animals (acetate: two animals, three further animals; embonate: one animal)): 24 h and up to 48 h
